Test results as given in PubChem BioAssay (NCI).
Where “and” joins values, the source holds several entries; their conditions need not be identical. Equal values may be shown once.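 Results reflect a 48-hour exposure of cells in 96-well plates to compound at five concentrations. At the GI50, growth is halved. TGI denotes the concentration required for complete inhibition of growth.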

Assays:
Experiment in all cases: growth of human tumour cells (NCI), 48 h
UACC-62 melanoma = tested on: UACC-62 melanoma
SK-MEL-5 melanoma = tested on: SK-MEL-5 melanoma
K-562 leukemia = tested on: K-562 leukemia
MDA-MB-231 breast = tested on: MDA-MB-231 breast
CCRF-CEM leukemia = tested on: CCRF-CEM leukemia
KM12 colon = tested on: KM12 colon
M14 melanoma = tested on: M14 melanoma
HOP-92 NSCLC = tested on: HOP-92 NSCLC
SR leukemia = tested on: SR leukemia
OVCAR-5 ovarian = tested on: OVCAR-5 ovarian

SMILES | GI50 (UACC-62 melanoma) | TGI (UACC-62 melanoma) | GI50 (SK-MEL-5 melanoma) [µM] | TGI (SK-MEL-5 melanoma) | GI50 (K-562 leukemia) | TGI (K-562 leukemia) | GI50 (MDA-MB-231 breast) | TGI (MDA-MB-231 breast) [µM] | GI50 (CCRF-CEM leukemia) [µM] | TGI (CCRF-CEM leukemia) | GI50 (KM12 colon) | TGI (KM12 colon) [µM] | GI50 (M14 melanoma) [µM] | TGI (M14 melanoma) | GI50 (HOP-92 NSCLC) [µM] | TGI (HOP-92 NSCLC) | GI50 (SR leukemia) [µM] | TGI (SR leukemia) | GI50 (OVCAR-5 ovarian) [µM] | TGI (OVCAR-5 ovarian)
O=C(NO)C(O)C(O)C(O)C(O)CO (configuration not stated) | 84.2 µM and 38.6 µM | > 100 µM | > 100 | > 100 µM | > 87.6 µM and 47.1 µM | > 100 µM | > 100 µM and 58.8 µM | > 100 | 50.6 | > 100 µM | > 100 µM and 53.2 µM | > 100 | > 100 | > 100 µM | > 100 | > 100 µM | 75.9 | > 100 µM | > 100 | > 100 µM
CCNC(=O)Oc1ccc(/C(=C(\C)c2ccc(Cl)cc2)c2ccc(OCCN3CCCCC3)cc2)cc1 | 2.5 µM | 6.01 µM | 1.79 | 3.17 µM | 2.34 µM | 5.96 µM | 3.55 µM | 11.5 | 3.26 | 11.8 µM | 3.81 µM | 15.4 | 1.87 | 3.8 µM | 2.7 | 9.25 µM | 2.98 | 9.23 µM | 11 | 23.8 µM
O=[N+]([O-])c1cccc(-c2ncc(-c3ccc(Cl)cc3Cl)[nH]2)c1 | 7.63 µM | 20.6 µM | 4.59 | 9.23 µM | 2.1 µM | > 19.7 µM | 11.7 µM | 30.9 | 1.49 | 4.48 µM | 1.75 µM | 3.41 | 8.35 | 26.9 µM | – | 35.4 µM | 0.471 | 2.44 µM | 8.07 | 23.1 µM
CN1CC(C(=O)NC2(C)OC3(O)C4CCCN4C(=O)C(Cc4ccccc4)N3C2=O)C=C2c3cccc4[nH]cc(c34)CC21 (configuration not stated) | – | 34.7 µM | – | 30.6 µM | – | > 100 µM | – | 45.5 | – | > 100 µM | – | 99.6 | – | 81.4 µM | – | 38.6 µM | – | 60.7 µM | – | 44.9 µM
C#Cc1cccc(Nc2ncnc3ccc(-c4cncc(NS(C)(=O)=O)c4)cc23)c1 | 1.66 µM | 5.69 µM | 1.63 | 3.06 µM | 3.79 µM | 19.5 µM | 2.2 µM | 8.06 | 0.82 | 7.31 µM | 2.33 µM | 6.52 | 2.33 | 11.2 µM | 0.447 | 3.73 µM | 1.37 | 5.74 µM | 1.07 | 16.5 µM
C=C(C)[C@]12CC(C)C34OC(/C=C\C=C\CCCCCCCCC)(O[C@@H]1[C@@H]3[C@@H]1O[C@]1(CO)[C@@H](O)[C@]1(O)C(=O)C(C)=C[C@@H]41)O2 (some centres not stated) | – | 24 µM | 0.000417 | 24.3 µM | < 0.0001 µM | > 35 µM | – | 15.4 | – | > 26.1 µM | – | 21.7 | – | 27.4 µM | – | 22.4 µM | – | 15.8 µM | – | 41.2 µM
COc1cc(C2c3cc4c(cc3[C@@H](Nc3cccc(O)c3)C3COC(=O)[C@H]23)OCO4)cc(OC)c1O (some centres not stated) | 0.603 µM | 7.08 µM | 0.526 | 6.45 µM | 0.802 µM | 22.2 µM | – | 24.2 | 0.237 | 0.973 µM and 7.66 µM | – | 11.6 | 0.991 | 14.1 µM | 0.458 | 0.951 µM and 9.4 µM | 0.0674 | 0.816 µM and 4.6 µM | – | 22.7 µM
CCc1nc(N)nc(N)c1-c1ccc([N+](=O)[O-])c(Cl)c1 | – | > 100 µM | – | > 82.5 µM | – | > 100 µM | – | > 100 | – | > 100 µM | – | > 100 | – | > 100 µM | – | > 100 µM | – | > 100 µM | – | > 100 µM
Cc1cc2c(cc1Cl)SC1=NN(C)C(c3ccccc3O)N1S2(=O)=O (configuration not stated) | 73.8 µM | > 100 µM | 57 | > 100 µM | > 100 µM | > 100 µM | 60.3 µM | > 100 | 75.4 | > 100 µM | 57.7 µM | > 100 | 47.5 | > 100 µM | 37.6 | > 100 µM | 36.6 | > 100 µM | 60 | > 100 µM
CN1C(=O)C23CC4=CC=CC(O)C4N2C(=O)C1(CO)SS3 (configuration not stated) | – | 0.424 µM | – | 0.38 µM | – | – | – | 0.373 | – | – | – | 0.453 | – | 0.295 µM | – | 0.41 µM | – | 0.0996 µM | – | 0.149 µM
CC[C@@]1(OC(=O)CN(C)C)C(=O)OCc2c1cc1n(c2=O)Cc2cc3ccccc3nc2-1 | < 0.012 µM | 0.116 µM and 0.132 µM | 0.0379 | 0.316 µM and 0.213 µM | 0.108 µM | 7.67 µM and > 41.5 µM | 1.44 µM | > 100 | – | – | – | – | 0.0424 | 0.574 µM and 0.559 µM | 0.216 | 0.944 µM and 2.19 µM | 0.00209 | 0.114 µM and < 0.0427 µM | 0.184 | 2.93 µM and 5.92 µM
CCOC(=O)C1=C(c2ccccc2)N(Cc2ccccc2)C2(O)C=CC(=O)C3C(=O)N(c4ccccc4)C(=O)C132 (configuration not stated) | 1.63 µM | 3.16 µM | 1.49 | 2.93 µM | 2.2 µM | 8.79 µM | 2.2 µM | 4.98 | 1.53 | 7.03 µM | 1.74 µM | 3.21 | 1.92 | 4.04 µM | 2.03 | 5.54 µM | 1.17 | 4.13 µM | 3.23 | 15.5 µM
Cc1nc(C(N)=S)sc1C(=O)CC(=O)C(=O)Nc1cccc(Cl)c1C | – | > 100 µM | – | > 100 µM | – | > 100 µM | – | > 100 | – | > 100 µM | – | > 100 | – | > 100 µM | – | > 100 µM | – | > 100 µM | – | > 100 µM
CCCCCCCCCCCCCCCC(=O)OCC1OC(n2ccc(N)nc2=O)C(O)C1O (configuration not stated) | – | > 100 µM | – | > 100 µM | – | > 100 µM | – | > 100 | – | 8.85 µM | – | > 100 | – | 33.7 µM | – | > 100 µM | – | 84.5 µM | – | > 100 µM
CCCCCCN1C(=O)CN=C1Nc1ccc2cc3ccc(NC4=NCC(=O)N4CCCCCC)cc3nc2c1 | 11.7 µM | 30 µM | 3.9 | 15.8 µM | 1.91 µM | 4.93 µM | 1.94 µM | 3.87 | 2.49 | 6.79 µM | 1.47 µM | 4.1 | 1.95 | 4.84 µM | 1.63 | 3.78 µM | 1.53 | 4.22 µM | 1.81 | 4.12 µM
